Results published in the NIST ThermoML archive (doi:10.1021/je0501843).
Values joined by “and” are separate entries in the source; they are usually repeats but may differ in a detail not shown here. Equal entries are not always repeated.

Assay: molar heat capacity at constant volume
Conditions: Fluid (supercritical or subcritical phases), Vacuum adiabatic calorimetry

FC(F)C(F)(F)F [pentafluoroethane]
Conditions	molar heat capacity at constant volume
365 K, Mass density=773.3 kg/m3	119.04 J/K/mol
365 K, Mass density=881.8 kg/m3	110.32 J/K/mol
365 K, Mass density=973.8 kg/m3	106.41 J/K/mol and 108.3 J/K/mol
365 K, Mass density=1075 kg/m3	105.75 J/K/mol
366 K, Mass density=403.6 kg/m3	108.16 J/K/mol
366 K, Mass density=503 kg/m3	114.45 J/K/mol
366 K, Mass density=585.5 kg/m3	119.7 J/K/mol and 112.44 J/K/mol
366 K, Mass density=688.1 kg/m3	116.48 J/K/mol
366 K, Mass density=881.7 kg/m3	110.43 J/K/mol
366 K, Mass density=973.7 kg/m3	107.62 J/K/mol and 109.23 J/K/mol
366 K, Mass density=1074.9 kg/m3	106.22 J/K/mol
367 K, Mass density=403.6 kg/m3	110.86 J/K/mol
367 K, Mass density=502.9 kg/m3	113.31 J/K/mol
367 K, Mass density=585.4 kg/m3	117.62 J/K/mol and 110.28 J/K/mol
367 K, Mass density=688.1 kg/m3	115.05 J/K/mol
367 K, Mass density=881.7 kg/m3	109.7 J/K/mol
367 K, Mass density=973.6 kg/m3	107.58 J/K/mol and 108.96 J/K/mol
367 K, Mass density=1074.8 kg/m3	106.41 J/K/mol
368 K, Mass density=403.5 kg/m3	111.09 J/K/mol
368 K, Mass density=502.9 kg/m3	112.14 J/K/mol
368 K, Mass density=585.4 kg/m3	115.53 J/K/mol and 108.9 J/K/mol
368 K, Mass density=688 kg/m3	113.01 J/K/mol
368 K, Mass density=773.1 kg/m3	111.16 J/K/mol
368 K, Mass density=881.6 kg/m3	109.62 J/K/mol
368 K, Mass density=973.6 kg/m3	106.75 J/K/mol and 108.55 J/K/mol
368 K, Mass density=1074.7 kg/m3	106.17 J/K/mol
369 K, Mass density=403.5 kg/m3	111.67 J/K/mol
369 K, Mass density=502.9 kg/m3	113.46 J/K/mol
369 K, Mass density=585.4 kg/m3	118.03 J/K/mol and 110.31 J/K/mol
369 K, Mass density=688 kg/m3	114.37 J/K/mol
369 K, Mass density=773.1 kg/m3	112.65 J/K/mol
369 K, Mass density=881.6 kg/m3	110.94 J/K/mol
369 K, Mass density=973.5 kg/m3	108.28 J/K/mol and 109.62 J/K/mol
369 K, Mass density=1074.6 kg/m3	106.18 J/K/mol
370 K, Mass density=403.5 kg/m3	111.22 J/K/mol
370 K, Mass density=502.9 kg/m3	114.85 J/K/mol
370 K, Mass density=585.4 kg/m3	118.04 J/K/mol and 108.82 J/K/mol
370 K, Mass density=687.9 kg/m3	116.1 J/K/mol
370 K, Mass density=773 kg/m3	113 J/K/mol
370 K, Mass density=881.5 kg/m3	111.13 J/K/mol
370 K, Mass density=973.4 kg/m3	107.54 J/K/mol and 109.82 J/K/mol
370 K, Mass density=1074.5 kg/m3	106.55 J/K/mol
371 K, Mass density=403.5 kg/m3	112.09 J/K/mol
371 K, Mass density=502.9 kg/m3	116.62 J/K/mol
371 K, Mass density=585.3 kg/m3	116.07 J/K/mol and 110.26 J/K/mol
371 K, Mass density=687.9 kg/m3	113.67 J/K/mol
371 K, Mass density=773 kg/m3	111.62 J/K/mol
371 K, Mass density=881.4 kg/m3	110.7 J/K/mol
371 K, Mass density=973.3 kg/m3	107.44 J/K/mol and 109.17 J/K/mol
371 K, Mass density=1074.4 kg/m3	107.07 J/K/mol
372 K, Mass density=403.5 kg/m3	114.04 J/K/mol
372 K, Mass density=502.8 kg/m3	115.24 J/K/mol
372 K, Mass density=585.3 kg/m3	115.84 J/K/mol and 110.71 J/K/mol
372 K, Mass density=687.9 kg/m3	112.84 J/K/mol
372 K, Mass density=772.9 kg/m3	111.54 J/K/mol
372 K, Mass density=881.4 kg/m3	110.3 J/K/mol
372 K, Mass density=973.3 kg/m3	107.17 J/K/mol and 108.04 J/K/mol
372 K, Mass density=1074.3 kg/m3	106.22 J/K/mol
373 K, Mass density=403.5 kg/m3	113.17 J/K/mol
373 K, Mass density=502.8 kg/m3	117.01 J/K/mol
373 K, Mass density=585.3 kg/m3	117.2 J/K/mol and 110.91 J/K/mol
373 K, Mass density=687.8 kg/m3	113.56 J/K/mol
373 K, Mass density=772.9 kg/m3	111.8 J/K/mol
373 K, Mass density=881.3 kg/m3	111.19 J/K/mol
373 K, Mass density=973.2 kg/m3	107.61 J/K/mol and 108.78 J/K/mol
374 K, Mass density=403.4 kg/m3	114.45 J/K/mol
374 K, Mass density=502.8 kg/m3	119.13 J/K/mol
374 K, Mass density=585.3 kg/m3	117.5 J/K/mol and 112.68 J/K/mol
374 K, Mass density=687.8 kg/m3	114.16 J/K/mol
374 K, Mass density=772.9 kg/m3	112.71 J/K/mol
374 K, Mass density=881.2 kg/m3	112 J/K/mol
374 K, Mass density=973.1 kg/m3	108.98 J/K/mol and 110.07 J/K/mol
375 K, Mass density=403.4 kg/m3	112.95 J/K/mol
375 K, Mass density=502.8 kg/m3	117.92 J/K/mol
375 K, Mass density=585.2 kg/m3	116.64 J/K/mol and 110.73 J/K/mol
375 K, Mass density=687.8 kg/m3	113.4 J/K/mol
375 K, Mass density=772.8 kg/m3	112.33 J/K/mol
375 K, Mass density=881.2 kg/m3	111 J/K/mol
375 K, Mass density=973 kg/m3	108.25 J/K/mol and 109.81 J/K/mol
376 K, Mass density=403.4 kg/m3	116.08 J/K/mol
376 K, Mass density=502.8 kg/m3	116.37 J/K/mol
376 K, Mass density=585.2 kg/m3	116.55 J/K/mol and 110.52 J/K/mol
376 K, Mass density=687.7 kg/m3	113.56 J/K/mol
376 K, Mass density=772.8 kg/m3	112.56 J/K/mol
376 K, Mass density=881.1 kg/m3	110.12 J/K/mol
376 K, Mass density=973 kg/m3	107.55 J/K/mol and 109 J/K/mol
377 K, Mass density=403.4 kg/m3	115.48 J/K/mol
377 K, Mass density=502.7 kg/m3	117.28 J/K/mol
377 K, Mass density=585.2 kg/m3	116.34 J/K/mol and 111.62 J/K/mol
377 K, Mass density=687.7 kg/m3	114.45 J/K/mol
377 K, Mass density=772.7 kg/m3	113.06 J/K/mol
377 K, Mass density=881.1 kg/m3	110.86 J/K/mol
377 K, Mass density=972.9 kg/m3	108.42 J/K/mol and 108.94 J/K/mol
378 K, Mass density=403.4 kg/m3	113.28 J/K/mol
378 K, Mass density=502.7 kg/m3	118.29 J/K/mol
378 K, Mass density=585.1 kg/m3	116.82 J/K/mol and 112.87 J/K/mol
378 K, Mass density=687.6 kg/m3	114.84 J/K/mol
378 K, Mass density=772.7 kg/m3	112.51 J/K/mol
378 K, Mass density=881 kg/m3	111.43 J/K/mol
378 K, Mass density=972.8 kg/m3	108.14 J/K/mol and 110.22 J/K/mol
379 K, Mass density=403.3 kg/m3	117.97 J/K/mol
379 K, Mass density=502.7 kg/m3	115.21 J/K/mol
379 K, Mass density=585.1 kg/m3	116.17 J/K/mol and 112.3 J/K/mol
379 K, Mass density=687.6 kg/m3	115.82 J/K/mol
379 K, Mass density=772.6 kg/m3	113.55 J/K/mol
379 K, Mass density=880.9 kg/m3	111.09 J/K/mol
379 K, Mass density=972.7 kg/m3	107.65 J/K/mol and 109.27 J/K/mol
380 K, Mass density=403.3 kg/m3	116.02 J/K/mol
380 K, Mass density=502.7 kg/m3	112.64 J/K/mol
380 K, Mass density=585.1 kg/m3	111.27 J/K/mol
380 K, Mass density=687.6 kg/m3	113.06 J/K/mol
380 K, Mass density=772.6 kg/m3	113.31 J/K/mol
380 K, Mass density=880.9 kg/m3	111.18 J/K/mol
380 K, Mass density=972.6 kg/m3	107.71 J/K/mol and 108.81 J/K/mol
381 K, Mass density=403.3 kg/m3	114.7 J/K/mol
381 K, Mass density=502.6 kg/m3	115.06 J/K/mol
381 K, Mass density=585 kg/m3	114.39 J/K/mol
381 K, Mass density=687.5 kg/m3	113.14 J/K/mol
381 K, Mass density=772.5 kg/m3	113.07 J/K/mol
381 K, Mass density=880.8 kg/m3	112.11 J/K/mol
381 K, Mass density=972.6 kg/m3	113.29 J/K/mol and 109.7 J/K/mol
382 K, Mass density=403.3 kg/m3	116.14 J/K/mol
382 K, Mass density=502.6 kg/m3	117.31 J/K/mol
